Results published in US20080031968A1, “Methods for increasing cellular energy expenditure” (priority 2005, published 2008).

Key:
Assay type in all cases: in vivo, mouse
KK-Ay and C57BL/6J mice = experiment: Tissue mRNA levels by quantitative RT-PCR after CA supplementation
Description: Male C57BL/6J, KK-Ay, and ob/ob (C57BL/6J background) mice, 6-10 weeks of age, were obtained from Elevage Janvier (Le Genest St. Isle, France), CLEA Japan Inc. (Tokyo, Japan), and The Jackson Laboratory (Bar Harbor, Me., USA), respectively. All mice were maintained in a temperature-controlled (23° C.) facility with a 12-hour light/dark cycle and were given free access to food and water. The study protocols were approved by the institutional review boards. The body weight and food intake were measured every second day. The control and high-fat diet was obtained from UAR (Villemoisson sur Orge, France). […] The mice were fasted 4 hours before harvesting blood for subsequent lipid measurements, and tissues for RNA isolation, lipid measurements, and histology.
Total RNA was extracted from frozen tissue samples or cells using the RNeasy kit (QIAGEN, Courtaboeuf, France). cDNA was synthesized from total RNA with the SuperScript First-Strand Synthesis System (Invitrogen) and random hexamer primers. The real-time PCR measurement of individual cDNAs was performed using SYBR green dye to measure duplex DNA formation with the LightCycler System (Roche Diagnostics, Meylan, France). The sequences of the primer sets used are available online at http://www-igbmc.ustrasbg.fr/Departments/Dep_V/Dep_VA/Publi/Paper.html.

C57BL/6J mice [1] = experiment: Diet-induced obesity in C57BL/6J mice
Description: (§1) Male C57BL/6J and KK-Ay mice, 6-7 weeks of age, were obtained from Charles River Laboratories France (l'Arbresle, France) and CLEA Japan Inc. (Tokyo, Japan), respectively. […] All mice were maintained in a temperature-controlled (23° C.) facility with a 12 h light/dark cycle and were given free access to food and water. The control and high-fat diet was obtained from UAR (Villemoison surOrge, France). […] GW4064 was suspended in peanut oil and mixed with the high fat diet at a concentration of 180 mg per kg of food. […] The mice were fasted 4 h before harvesting blood for subsequent blood measurements, and tissues for RNA isolation, lipid measurements and histology. Oxygen consumption was measured using the Oxymax apparatus (Columbus Instruments, Columbus, Ohio).
(§2) An OGTT was performed in animals that were fasted overnight. Glucose was administered by gavage at a dose of 2 g/kg. An IPITT was done in 4 h fasted animals. Insulin was injected at a dose of 0.75 U/kg. Glucose quantification was done with the Maxi Kit Glucometer 4 (Bayer Diagnostic, Puteaux, France) or Glucose RTU (bioMérieux Inc., Marcy l'Etoile, France). Plasma insulin concentrations were measured using ELISA (Cristal Chem Inc., Downers Grove, Ill.). Nonesterified fatty acids, triglycerides, ketone bodies, BA and total cholesterol were determined by enzymatic assays (Roche, Mannheim, Germany). cAMP was measured using the cAMP-Screen system (Applied Biosystems, Bedford, Mass.).
Pieces of mouse tissues were fixed in Bouin's solution, dehydrated in ethanol, embedded in paraffin, and cut at a thickness of 5 μm. Sections were deparaffinized, rehydrated, and stained with haematoxylin and eosin. Transmission electron microscopy was then performed.

C57BL/6J mice [2] = experiment: Indirect calorimetry (Oxymax)
Description: as §1

BAT = experiment: cAMP levels in BAT of mice fed high fat diet with CA; conditions: mice fed high fat diet with CA vs control mice
Description: as §2

[3] = KK-Ay and C57BL/6J mice, 1 and 7 days CA in chow
[4] = high fat diet supplemented with CA, histology

C[C@H](CCC(=O)O)[C@H]1CC[C@H]2[C@@H]3[C@H](O)C[C@@H]4C[C@H](O)CC[C@]4(C)[C@H]3C[C@H](O)[C@]12C [CA, cholic acid]
hepatic expression of MCAD and LCAD (KK-Ay and C57BL/6J mice; C57BL/6J mice, 1 and 7 days CA): significantly decreased
expression of lipogenic genes in white adipose tissue (KK-Ay and C57BL/6J mice; CA treatment): none of the lipogenic genes were lowered
hepatic expression of SHP (KK-Ay and C57BL/6J mice; CA treatment): robust induction
hepatic expression of AceCS, ME and SCD-1 (KK-Ay and C57BL/6J mice; [3]): significantly reduced
hepatic expression of LXRA, LRH-1, FXR and SREBP-2 (KK-Ay and C57BL/6J mice; [3]): No major changes
hepatic expression of CPT-I, MCAD and LCAD (KK-Ay and C57BL/6J mice; KK-Ay mice, CA): no change
glucose tolerance (C57BL/6J mice [1]; C57BL/6J mice with diet-induced obesity): improves glucose tolerance
body weight gain (C57BL/6J mice [1]; chow diet supplemented with CA): no effect
high fat-induced changes in adipose mass and morphology (C57BL/6J mice [1]; diet supplementation with CA): completely prevented
weight gain (C57BL/6J mice [1]; high fat diet supplemented with 0.5% CA): reduced the weight gain
adipocyte hypertrophy in WAT and BAT (C57BL/6J mice [1]; [4]): not observed
liver steatosis (C57BL/6J mice [1]; [4]): reversed
120-days of diet-induced weight gain (C57BL/6J mice [1]; obese mice switched to high fat diet containing CA): reversed
time to return to normal body weight (C57BL/6J mice [1]; obese mice switched to high fat diet containing CA (F-FA)): ≤ 30 days
CO2 production and O2 consumption (C57BL/6J mice [2]; high fat diet containing CA vs high fat or normal diet): higher
respiratory quotient (RQ=VCO2/VO2) (C57BL/6J mice [2]; high fat diet supplemented with CA): not affected
cAMP levels in BAT (BAT): significantly elevated
